The values that follow are results of earlier work, collected in patent US20200215149A1, “N-Phenylacetyl-L-prolylglycine ethyl ester compositions and methods for using the same” (priority 2019, published 2020).

Structures are written as SMILES. Like-named read-outs stand apart in the source and are kept apart here. Where a SMILES comes first, the peptide text is derived from it. The star is where a group is joined. PhAc = O=C(Cc1ccccc1)*

The conditions of data set [1]: Ostrovskaya, et al. (2008); Hayakawa, et al. (2007).
For data set [2] the following is noted: ratio versus piracetam; Neznamov and Teleshova (2009).

Consider `CCOC(=O)CNC(=O)[C@@H]1CCCN1C(=O)Cc1ccccc1` [noopept, N-Phenylacetyl-L-prolylglycine ethyl ester] (PhAc-Pro-Gly-OEt), for which the tolerance or addiction result in data set [1] is on record as “neither noopept nor CBD has been shown to cause the user to become tolerant or addicted”. Besides, the “effective dose, times smaller in mass than the effective dose of piracetam” value in data set [2] is listed as “over 50 times”. Besides, the side effects entry (healthy human subjects, compared with piracetam, Neznamov and Teleshova (2009)) was “fewer side effects”.

As for `C=C(C)[C@@H]1CCC(C)=C[C@H]1c1c(O)cc(CCCCC)cc1O` [CBD, cannabidiol], the tolerance or addiction result in data set [1] was “neither noopept nor CBD has been shown to cause the user to become tolerant or addicted”. For the same compound, the side effects entry (humans who consume effective doses of CBD, Bergamaschi, et al. (2011)) was “generally does not cause significant side effects”.
